Source: the NIST ThermoML archive (doi:10.1016/j.tca.2005.08.012)

What was measured:
[1] = xn = mol fraction of the nth substance listed; details: 101 kPa, Liquid, Vibrating tube method
[2] = 101.33 kPa, Liquid, Vibrating tube method

CCCCN(CCCC)CCCC [tributylamine] + C1CCCCC1
mass density [kg/m3], [1]
Details | x1 = 0.0103 | x1 = 0.0216 | x1 = 0.0318 | x1 = 0.0402 | x1 = 0.0516 | x1 = 0.0598 | x1 = 0.0709 | x1 = 0.0807 | x1 = 0.0861
303.15 K | 768.92 | 768.75 | 768.65 | 768.57 | 768.46 | 768.38 | 768.26 | 768.18 | 768.14
313.15 K | 759.38 | 759.25 | 759.17 | 759.09 | 758.99 | 758.97 | 758.92 | 758.91 | 758.99

CCCNCCC [dipropylamine] + c1ccccc1
mass density [kg/m3], [1]
Details | x1 = 0.0105 | x1 = 0.0207 | x1 = 0.0306 | x1 = 0.039 | x1 = 0.0508 | x1 = 0.0614 | x1 = 0.0723 | x1 = 0.0812 | x1 = 0.0917
303.15 K | 865.97 | 863.74 | 861.67 | 859.91 | 857.5 | 855.36 | 853.17 | 851.42 | 849.36
313.15 K | 855.38 | 853.26 | 851.24 | 849.55 | 847.19 | 845.11 | 843 | 841.29 | 839.28

C1CCCCC1 [cyclohexane]
[2]
Details | mass density [kg/m3]
303.15 K | 769.1
313.15 K | 759.52

CCCCN [1-butanamine] + c1ccccc1
mass density [kg/m3], [1]
Details | x1 = 0.0094 | x1 = 0.0195 | x1 = 0.0284 | x1 = 0.038 | x1 = 0.048 | x1 = 0.0588 | x1 = 0.0669 | x1 = 0.0764 | x1 = 0.0859
303.15 K | 866.8 | 865.19 | 863.77 | 862.3 | 860.74 | 859.06 | 857.8 | 856.32 | 854.84
313.15 K | 856.12 | 854.55 | 853.17 | 851.7 | 850.16 | 848.5 | 847.27 | 845.82 | 844.4

CCCNCCC [dipropylamine] + C1CCCCC1
mass density [kg/m3], [1]
Details | x1 = 0.0114 | x1 = 0.0213 | x1 = 0.0321 | x1 = 0.0414 | x1 = 0.0509 | x1 = 0.0622 | x1 = 0.0727 | x1 = 0.0811 | x1 = 0.0919
303.15 K | 768.31 | 767.65 | 766.94 | 766.29 | 765.71 | 764.96 | 764.29 | 763.78 | 763.13
313.15 K | 758.72 | 758.03 | 757.3 | 756.67 | 756.07 | 755.34 | 754.66 | 754.17 | 753.52

CCCN(CCC)CCC [tripropylamine] + c1ccccc1
mass density [kg/m3], [1]
Details | x1 = 0.0104 | x1 = 0.0206 | x1 = 0.0307 | x1 = 0.0402 | x1 = 0.0497 | x1 = 0.0596 | x1 = 0.0693 | x1 = 0.0788 | x1 = 0.0889
303.15 K | 865.5 | 862.82 | 860.21 | 857.87 | 855.54 | 853.15 | 850.88 | 848.69 | 846.42
313.15 K | 854.85 | 852.24 | 849.71 | 847.43 | 845.18 | 842.85 | 840.66 | 838.55 | 836.35

CCCNCCC [dipropylamine]
[2]
Details | mass density [kg/m3]
303.15 K | 731.21
313.15 K | 726.15

CCCCN(CCCC)CCCC [tributylamine]
[2]
Details | mass density [kg/m3]
303.15 K | 770.21
313.15 K | 763.11

CCCCNCCCC [dibutylamine]
[2]
Details | mass density [kg/m3]
303.15 K | 752.28
313.15 K | 743.44

CCCN [propan-1-amine] + c1ccccc1
mass density [kg/m3], [1]
Details | x1 = 0.0079 | x1 = 0.0186 | x1 = 0.028 | x1 = 0.0366 | x1 = 0.047 | x1 = 0.0579 | x1 = 0.0659 | x1 = 0.0759 | x1 = 0.0844
303.15 K | 867.07 | 865.41 | 863.91 | 862.58 | 860.86 | 859.18 | 857.86 | 856.37 | 854.97
313.15 K | 856.39 | 854.75 | 853.34 | 852.02 | 850.44 | 848.78 | 847.56 | 846.03 | 844.73

CCN(CC)CC [triethylamine] + c1ccccc1
mass density [kg/m3], [1]
Details | x1 = 0.0102 | x1 = 0.0209 | x1 = 0.0311 | x1 = 0.0395 | x1 = 0.0501 | x1 = 0.0618 | x1 = 0.0712 | x1 = 0.0804 | x1 = 0.0919 | x1 = 0.1
303.15 K | 865.85 | 863.38 | 861.03 | 859.07 | 856.75 | 854.1 | 851.95 | 850 | 847.45 | 845.76
313.15 K | 855.14 | 852.62 | 850.24 | 848.31 | 845.93 | 843.31 | 841.23 | 839.27 | 836.79 | 835.08

CCCN(CCC)CCC [tripropylamine]
[2]
Details | mass density [kg/m3]
303.15 K | 749.15
313.15 K | 740.41

CCN(CC)CC [triethylamine]
[2]
Details | mass density [kg/m3]
303.15 K | 718.44
313.15 K | 709.05

CCN(CC)CC [triethylamine] + C1CCCCC1
mass density [kg/m3], [1]
Details | x1 = 0.0102 | x1 = 0.0192 | x1 = 0.0299 | x1 = 0.0422 | x1 = 0.0498 | x1 = 0.0618 | x1 = 0.0712 | x1 = 0.0799 | x1 = 0.0895 | x1 = 0.0995
303.15 K | 768.28 | 767.5 | 766.58 | 765.57 | 764.97 | 764.04 | 763.35 | 762.72 | 762.05 | 761.36
313.15 K | 758.66 | 757.93 | 757.05 | 756.07 | 755.48 | 754.54 | 753.86 | 753.22 | 752.62 | 751.88

CCCCN [1-butanamine]
[2]
Details | mass density [kg/m3]
303.15 K | 728.65
313.15 K | 719.17

CCCCN [1-butanamine] + C1CCCCC1
mass density [kg/m3], [1]
Details | x1 = 0.0097 | x1 = 0.0197 | x1 = 0.0282 | x1 = 0.038 | x1 = 0.0471 | x1 = 0.0581 | x1 = 0.0674 | x1 = 0.0724 | x1 = 0.0873
303.15 K | 768.39 | 767.7 | 767.1 | 766.38 | 765.76 | 764.98 | 764.35 | 764.08 | 763.14
313.15 K | 758.82 | 758.12 | 757.54 | 756.91 | 756.3 | 755.61 | 754.91 | 754.62 | 753.62

CCCCNCCCC [dibutylamine] + c1ccccc1
mass density [kg/m3], [1]
Details | x1 = 0.0108 | x1 = 0.0201 | x1 = 0.03 | x1 = 0.039 | x1 = 0.0487 | x1 = 0.0593 | x1 = 0.0689 | x1 = 0.0797 | x1 = 0.0892
303.15 K | 865.75 | 863.58 | 861.33 | 859.32 | 857.18 | 854.88 | 852.86 | 850.62 | 848.69
313.15 K | 855.17 | 853.13 | 851 | 849.09 | 847.05 | 844.85 | 842.92 | 840.79 | 838.92

CCCCN(CCCC)CCCC [tributylamine] + c1ccccc1
mass density [kg/m3], [1]
Details | x1 = 0.0102 | x1 = 0.0206 | x1 = 0.0302 | x1 = 0.0404 | x1 = 0.0499 | x1 = 0.0596 | x1 = 0.0698 | x1 = 0.0796 | x1 = 0.0874
303.15 K | 865.38 | 862.54 | 860.05 | 857.48 | 855.12 | 852.77 | 850.4 | 848.22 | 846.53
313.15 K | 854.76 | 852.03 | 849.61 | 847.12 | 844.87 | 842.65 | 840.38 | 838.28 | 836.65

CCCN [propan-1-amine]
[2]
Details | mass density [kg/m3]
303.15 K | 706.1
313.15 K | 696.04

CCCN(CCC)CCC [tripropylamine] + C1CCCCC1
mass density [kg/m3], [1]
Details | x1 = 0.0109 | x1 = 0.02 | x1 = 0.0305 | x1 = 0.0406 | x1 = 0.0511 | x1 = 0.0596 | x1 = 0.0693 | x1 = 0.0787 | x1 = 0.0878
303.15 K | 768.54 | 768.11 | 767.6 | 767.14 | 766.65 | 766.35 | 765.93 | 765.54 | 765.16
313.15 K | 758.99 | 758.57 | 758.14 | 757.71 | 757.28 | 756.93 | 756.56 | 756.18 | 755.84

CCCN [propan-1-amine] + C1CCCCC1
mass density [kg/m3], [1]
Details | x1 = 0.0076 | x1 = 0.0169 | x1 = 0.0282 | x1 = 0.0365 | x1 = 0.0483 | x1 = 0.057 | x1 = 0.0652 | x1 = 0.0747 | x1 = 0.0859
303.15 K | 768.47 | 767.75 | 766.86 | 766.22 | 765.3 | 764.61 | 763.97 | 763.25 | 762.47
313.15 K | 758.92 | 758.21 | 757.38 | 756.8 | 755.92 | 755.27 | 754.68 | 753.96 | 753.15

c1ccccc1 [benzene]
[2]
Details | mass density [kg/m3]
303.15 K | 868.3
313.15 K | 857.59

CCCCNCCCC [dibutylamine] + C1CCCCC1
mass density [kg/m3], [1]
Details | x1 = 0.0109 | x1 = 0.0204 | x1 = 0.0298 | x1 = 0.0392 | x1 = 0.0493 | x1 = 0.0583 | x1 = 0.0689 | x1 = 0.0797 | x1 = 0.0881
303.15 K | 768.53 | 768.07 | 767.62 | 767.24 | 766.84 | 766.46 | 766.05 | 765.6 | 765.27
313.15 K | 759.01 | 758.59 | 758.19 | 757.79 | 757.36 | 756.99 | 756.55 | 756.11 | 755.77
